Numbers after ± are expanded uncertainties.
Experiment: xn = mol fraction of the nth substance listed
Settings: Liquid, Vibrating tube method

CCCCCCCCCC [decane] + CCCCCCCC
Settings | mass density [kg/m3]
343.12 K, 23000 kPa, x2 = 0.7736 | 693.03 ± 0.56
343.12 K, 24000 kPa, x2 = 0.2801 | 707.17 ± 0.55
343.12 K, 24000 kPa, x2 = 0.5314 | 700.89 ± 0.56
343.12 K, 24000 kPa, x2 = 0.7736 | 693.84 ± 0.56
343.12 K, 25000 kPa, x2 = 0.2801 | 707.92 ± 0.55
343.12 K, 25000 kPa, x2 = 0.5314 | 701.69 ± 0.56
343.12 K, 25000 kPa, x2 = 0.7736 | 694.61 ± 0.57
343.13 K, 1000 kPa, x2 = 0.9623 | 664.48 ± 0.42
343.13 K, 2000 kPa, x2 = 0.9623 | 665.59 ± 0.43
343.13 K, 3000 kPa, x2 = 0.9623 | 666.77 ± 0.43
343.13 K, 4000 kPa, x2 = 0.9623 | 667.86 ± 0.44
343.13 K, 5000 kPa, x2 = 0.9623 | 668.95 ± 0.44
343.13 K, 6000 kPa, x2 = 0.9623 | 670.06 ± 0.45
343.13 K, 7000 kPa, x2 = 0.9623 | 671.17 ± 0.46
343.13 K, 8000 kPa, x2 = 0.9623 | 672.27 ± 0.46
343.13 K, 9000 kPa, x2 = 0.9623 | 673.35 ± 0.47
343.13 K, 10000 kPa, x2 = 0.9623 | 674.41 ± 0.47
343.13 K, 10990 kPa, x2 = 0.9623 | 675.48 ± 0.48
343.13 K, 12000 kPa, x2 = 0.9623 | 676.54 ± 0.49
343.13 K, 13000 kPa, x2 = 0.9623 | 677.56 ± 0.49
343.13 K, 14000 kPa, x2 = 0.9623 | 678.58 ± 0.5
343.13 K, 15000 kPa, x2 = 0.9623 | 679.6 ± 0.51
343.13 K, 16000 kPa, x2 = 0.9623 | 680.56 ± 0.51
343.13 K, 17000 kPa, x2 = 0.9623 | 681.54 ± 0.52
343.13 K, 18000 kPa, x2 = 0.9623 | 682.46 ± 0.53
343.13 K, 19000 kPa, x2 = 0.9623 | 683.41 ± 0.53
343.13 K, 20000 kPa, x2 = 0.9623 | 684.31 ± 0.54
343.13 K, 21000 kPa, x2 = 0.9623 | 685.19 ± 0.55
343.13 K, 22000 kPa, x2 = 0.9623 | 686.05 ± 0.56
343.13 K, 23000 kPa, x2 = 0.9623 | 686.9 ± 0.56
343.13 K, 24000 kPa, x2 = 0.9623 | 687.72 ± 0.57
343.13 K, 25000 kPa, x2 = 0.9623 | 688.5 ± 0.58
353.08 K, 1000 kPa, x2 = 0.9623 | 656.17 ± 0.42
353.08 K, 2000 kPa, x2 = 0.9623 | 657.39 ± 0.43
353.08 K, 3000 kPa, x2 = 0.9623 | 658.62 ± 0.43
353.08 K, 4000 kPa, x2 = 0.9623 | 659.85 ± 0.44
353.08 K, 5000 kPa, x2 = 0.9623 | 660.99 ± 0.45
353.08 K, 6000 kPa, x2 = 0.9623 | 662.16 ± 0.45
353.08 K, 7000 kPa, x2 = 0.9623 | 663.38 ± 0.46
353.08 K, 8000 kPa, x2 = 0.9623 | 664.55 ± 0.46
353.08 K, 9000 kPa, x2 = 0.9623 | 665.71 ± 0.47
353.08 K, 10000 kPa, x2 = 0.9623 | 666.85 ± 0.48
353.08 K, 10990 kPa, x2 = 0.9623 | 667.94 ± 0.48
353.08 K, 12000 kPa, x2 = 0.9623 | 669.1 ± 0.49
353.08 K, 13000 kPa, x2 = 0.9623 | 670.16 ± 0.5
353.08 K, 14000 kPa, x2 = 0.9623 | 671.22 ± 0.5
353.08 K, 15000 kPa, x2 = 0.9623 | 672.32 ± 0.51
353.08 K, 16000 kPa, x2 = 0.9623 | 673.37 ± 0.52
353.08 K, 17000 kPa, x2 = 0.9623 | 674.4 ± 0.52
353.08 K, 18000 kPa, x2 = 0.9623 | 675.38 ± 0.53
353.08 K, 19000 kPa, x2 = 0.9623 | 676.37 ± 0.54
353.08 K, 20000 kPa, x2 = 0.9623 | 677.3 ± 0.55
353.08 K, 21000 kPa, x2 = 0.9623 | 678.26 ± 0.55
353.08 K, 22000 kPa, x2 = 0.9623 | 679.19 ± 0.56
353.08 K, 23000 kPa, x2 = 0.9623 | 680.04 ± 0.57
353.08 K, 24000 kPa, x2 = 0.9623 | 680.91 ± 0.58
353.08 K, 25000 kPa, x2 = 0.9623 | 681.75 ± 0.58
353.12 K, 1000 kPa, x2 = 0.0616 | 683.44 ± 0.42
353.12 K, 1000 kPa, x2 = 0.2801 | 678.06 ± 0.42
353.12 K, 1000 kPa, x2 = 0.5314 | 670.91 ± 0.42
353.12 K, 1000 kPa, x2 = 0.7736 | 663 ± 0.42
353.12 K, 2000 kPa, x2 = 0.0616 | 684.54 ± 0.42
353.12 K, 2000 kPa, x2 = 0.2801 | 679.14 ± 0.42
353.12 K, 2000 kPa, x2 = 0.5314 | 672.1 ± 0.42
353.12 K, 2000 kPa, x2 = 0.7736 | 664.25 ± 0.43
353.12 K, 3000 kPa, x2 = 0.0616 | 685.62 ± 0.42
353.12 K, 3000 kPa, x2 = 0.2801 | 680.24 ± 0.43
353.12 K, 3000 kPa, x2 = 0.5314 | 673.23 ± 0.43
353.12 K, 3000 kPa, x2 = 0.7736 | 665.41 ± 0.43
353.12 K, 4000 kPa, x2 = 0.0616 | 686.69 ± 0.43
353.12 K, 4000 kPa, x2 = 0.2801 | 681.31 ± 0.43
353.12 K, 4000 kPa, x2 = 0.5314 | 674.37 ± 0.43
353.12 K, 4000 kPa, x2 = 0.7736 | 666.6 ± 0.44
353.12 K, 5000 kPa, x2 = 0.0616 | 687.76 ± 0.43
353.12 K, 5000 kPa, x2 = 0.2801 | 682.4 ± 0.44
353.12 K, 5000 kPa, x2 = 0.5314 | 675.52 ± 0.44
353.12 K, 5000 kPa, x2 = 0.7736 | 667.77 ± 0.44
353.12 K, 6000 kPa, x2 = 0.0616 | 688.82 ± 0.44
353.12 K, 6000 kPa, x2 = 0.2801 | 683.48 ± 0.44
353.12 K, 6000 kPa, x2 = 0.5314 | 676.65 ± 0.44
353.12 K, 6000 kPa, x2 = 0.7736 | 668.95 ± 0.45
353.12 K, 7000 kPa, x2 = 0.0616 | 689.85 ± 0.44
353.12 K, 7000 kPa, x2 = 0.2801 | 684.52 ± 0.45
353.12 K, 7000 kPa, x2 = 0.5314 | 677.77 ± 0.45
353.12 K, 7000 kPa, x2 = 0.7736 | 670.08 ± 0.45
353.12 K, 8000 kPa, x2 = 0.0616 | 690.88 ± 0.45
353.12 K, 8000 kPa, x2 = 0.2801 | 685.57 ± 0.45
353.12 K, 8000 kPa, x2 = 0.5314 | 678.86 ± 0.46
353.12 K, 8000 kPa, x2 = 0.7736 | 671.21 ± 0.46
353.12 K, 9000 kPa, x2 = 0.0616 | 691.9 ± 0.45
353.12 K, 9000 kPa, x2 = 0.2801 | 686.58 ± 0.46
353.12 K, 9000 kPa, x2 = 0.5314 | 679.93 ± 0.46
353.12 K, 9000 kPa, x2 = 0.7736 | 672.31 ± 0.47
353.12 K, 10000 kPa, x2 = 0.0616 | 692.88 ± 0.46

Source: the NIST ThermoML archive (doi:10.1016/j.jct.2011.08.016)
